Assay results taken from the NIST ThermoML archive (doi:10.1021/acs.jced.8b01120).

Assay: xn = mol fraction of the nth substance listed
Details: 100 kPa, Liquid; for speed of sound: Single path-length method; for mass density: Vibrating tube method

CCCCN(CCCC)CCCC [tributylamine] + CCCCOC(C)=O
Details	mass density, 293.15 K [kg/m3]	mass density, 298.15 K [kg/m3]	mass density, 303.15 K [kg/m3]	mass density, 308.15 K [kg/m3]	mass density, 313.15 K [kg/m3]	speed of sound, 293.15 K [m/s]	speed of sound, 298.15 K [m/s]	speed of sound, 303.15 K [m/s]	speed of sound, 308.15 K [m/s]	speed of sound, 313.15 K [m/s]
x1 = 0.0535	870.397	865.288	860.118	854.99	849.73	1214	1193.8	1175.2	1156	1132.7
x1 = 0.11	859.603	854.617	849.591	844.604	839.544	1217.1	1196.9	1178.2	1158.9	1135.7
x1 = 0.2003	844.278	839.544	834.725	829.963	825.128	1221.8	1201.9	1183.5	1163.8	1141.7
x1 = 0.3239	827.789	823.24	818.635	814.11	809.428	1228.3	1208.9	1189.5	1170.4	1148.8
x1 = 0.4004	818.98	814.604	810.171	805.768	801.312	1232.5	1212.3	1193.6	1174.4	1153.5
x1 = 0.502	809.109	804.828	800.541	796.282	791.968	1237.7	1217.4	1199.2	1180.1	1158.9
x1 = 0.592	801.571	797.439	793.26	789.105	784.862	1242.4	1222.7	1203.4	1185.3	1164.7
x1 = 0.7201	792.16	788.147	784.362	780.344	775.931	1249.1	1229.7	1210.9	1192	1171.8
x1 = 0.8002	787.449	783.513	779.542	775.588	771.559	1253.5	1233.7	1215	1195.9	1176.6
x1 = 0.9065	781.614	777.793	773.938	770.069	766.156	1259.1	1240	1220.6	1201.7	1183.1
x1 = 1	777.006	773.28	769.552	765.811	762.061	1264.2	1245.2	1226.2	1207.4	1188.8

CCCCN(CCCC)CCCC [tributylamine] + CCCOC(C)=O
Details	mass density, 293.15 K [kg/m3]	mass density, 298.15 K [kg/m3]	mass density, 303.15 K [kg/m3]	mass density, 308.15 K [kg/m3]	mass density, 313.15 K [kg/m3]	speed of sound, 293.15 K [m/s]	speed of sound, 298.15 K [m/s]	speed of sound, 303.15 K [m/s]	speed of sound, 308.15 K [m/s]	speed of sound, 313.15 K [m/s]
x1 = 0.0509	876.475	871.105	865.344	859.857	854.206	1193.8	1167.9	1148.6	1127.2	1105.2
x1 = 0.1204	861.989	856.798	851.275	845.985	840.603	1198.3	1173.2	1154.3	1132.9	1111.2
x1 = 0.2066	846.28	841.395	836.192	831.184	826.095	1205.3	1180.5	1161.6	1140.7	1119.1
x1 = 0.306	831.793	827.121	822.274	817.519	812.694	1212	1188.5	1169.1	1148.2	1127.6
x1 = 0.4043	819.864	815.394	810.785	806.239	801.63	1219.3	1196.3	1177	1156.6	1136
x1 = 0.5015	809.872	805.603	801.221	796.775	792.345	1226.3	1204.6	1185.2	1165.4	1144.9
x1 = 0.6007	801.215	797.082	792.841	788.618	784.342	1233.2	1212.4	1192.9	1172.6	1153.4
x1 = 0.7102	793.047	789.025	784.905	780.824	776.694	1241.2	1221.4	1201.8	1182.1	1162.6
x1 = 0.8007	787.307	783.381	779.377	775.39	771.367	1248.5	1228.5	1209.3	1190	1171.2
x1 = 0.9008	781.809	777.98	774.088	770.204	766.273	1255.7	1236.5	1217.8	1197.9	1179.1
x1 = 1	777.006	773.283	769.552	765.811	762.061	1264.2	1245.2	1226.2	1207.4	1188.8

CCCCN(CCCC)CCCC [tributylamine] + CCOC(C)=O
Details	mass density, 293.15 K [kg/m3]	mass density, 298.15 K [kg/m3]	mass density, 303.15 K [kg/m3]	mass density, 308.15 K [kg/m3]	mass density, 313.15 K [kg/m3]	speed of sound, 293.15 K [m/s]	speed of sound, 298.15 K [m/s]	speed of sound, 303.15 K [m/s]	speed of sound, 308.15 K [m/s]	speed of sound, 313.15 K [m/s]
x1 = 0.0502	886.034	880.238	874.248	868.137	862.077	1168.6	1146.5	1124.6	1102.3	1080.9
x1 = 0.104	872.134	866.571	860.881	854.773	848.939	1172.6	1152.6	1129.9	1108.7	1088.3
x1 = 0.2041	850.473	845.352	840.168	834.885	829.51	1182.8	1162.8	1140.7	1119.9	1098.8
x1 = 0.3022	834.126	829.336	824.418	819.471	814.442	1193.2	1172.8	1151.3	1131.6	1109.3
x1 = 0.402	820.855	816.274	811.568	806.892	802.143	1203.3	1182.8	1161.7	1141.7	1120.9
x1 = 0.5017	810.036	805.655	801.215	796.734	792.21	1213.4	1194	1172.7	1152.9	1132.9
x1 = 0.6003	801.163	796.948	792.639	788.358	784.016	1223	1203.8	1182.3	1163.6	1143.3
x1 = 0.7004	793.656	789.584	785.465	781.294	777.107	1233.6	1214.6	1193.2	1174.6	1154.3
x1 = 0.8009	787.308	783.362	779.404	775.399	771.342	1244	1224.7	1205.4	1185.6	1166.1
x1 = 0.9011	781.785	777.942	774.089	770.192	766.343	1253.8	1234.6	1215.4	1196.5	1177.7
x1 = 1	777.006	773.283	769.552	765.811	762.061	1264.2	1245.2	1226.2	1207.4	1188.8

CCCCN(CCCC)CCCC [tributylamine] + COC(C)=O
Details	mass density, 293.15 K [kg/m3]	mass density, 298.15 K [kg/m3]	mass density, 303.15 K [kg/m3]	mass density, 308.15 K [kg/m3]	mass density, 313.15 K [kg/m3]	speed of sound, 293.15 K [m/s]	speed of sound, 298.15 K [m/s]	speed of sound, 303.15 K [m/s]	speed of sound, 308.15 K [m/s]	speed of sound, 313.15 K [m/s]
x1 = 0.0501	913.106	906.572	900.184	893.938	887.487	1184.6	1160.4	1140	1113.4	1094.9
x1 = 0.1009	893.96	887.924	881.943	875.744	869.547	1188.9	1165.2	1144.5	1118	1099.6
x1 = 0.2003	864.36	858.987	853.583	848.346	842.744	1197.3	1174.1	1153.7	1128.1	1109.7
x1 = 0.2941	843.967	838.976	833.982	828.97	823.819	1205.6	1182.6	1161	1137.7	1118.6
x1 = 0.4009	826.428	821.765	817.081	812.409	807.525	1213.9	1191.9	1171.2	1148.1	1129.6
x1 = 0.5004	813.696	809.242	804.881	800.355	795.747	1222.5	1200.4	1180.6	1158.4	1138.9
x1 = 0.6008	803.345	799.107	794.831	790.504	786.225	1230.4	1209.5	1190.4	1167.9	1149.1
x1 = 0.7008	794.987	790.893	786.764	782.571	778.432	1239	1218.5	1198.7	1177.6	1159
x1 = 0.8004	788.147	784.162	780.197	776.154	772.052	1247.6	1227	1207.9	1187.8	1168.5
x1 = 0.9003	782.234	778.353	774.459	770.516	766.597	1255.7	1236.1	1217	1197.3	1177.8
x1 = 1	777.01	773.283	769.55	765.81	762.06	1264.2	1245.2	1226.2	1207.4	1188.8
